Data reported in ChEMBL document CHEMBL3875218, “Bifunctional conjugates with potent inhibitory activity towards cyclooxygenase and histone deacetylase” (Bioorg Med Chem, 2017).

Assay: Cytotoxicity against human LNCAP cells assessed as cell growth inhibition after 72 hrs by MTT assay
Format: functional, cell-based

Compound: Cc1ccc(-c2cc(C(F)(F)F)nn2-c2ccc(S(=O)(=O)NCCCCCCC(=O)NO)cc2)cc1
- IC50: 2.19 µM
